# Measured values published in the Kinase Knowledgebase extract (Sharma et al. 2016).
# Target: MAPK14;MAPK11;MAPK12 (human) (UniProt Q16539)
# Experiment: Inhibition of p38 Kinase Activity
row,SMILES,IC50 [nM]
1,CNc1nc(NCc2ccc(F)cc2F)nc(Nc2ccc3ncsc3c2)n1,< 10000
2,CCONC(=O)c1ccc(C)c(Nc2nc(NC)cc(N(C)CC(C)(C)C)n2)c1,< 1000
3,CNc1nc(NCCOC(C)C)nc(Nc2ccc3ncsc3c2)n1,< 10000
4,Cc1ccc(-c2nnco2)cc1Nc1nc(N[C@@H]2CCNC2)nc(N(C)CC(C)(C)C)n1,< 1000
5,Cc1ccc(C(N)=O)cc1Nc1nc(N[C@H]2CCN(C(C)c3ccccc3)C2)nc(N(C)CC(C)C)n1 (stereo not given in full),< 1000
6,CC(CCCCCCN(C)c1nc(NCC(C)c2ccccc2)nc(Nc2ccc3ncsc3c2)n1)C(N)=O (stereo not given),< 10000
7,CCNC(=O)c1ccc(C)c(Nc2nc(NC[C@H]3CCCN3)nc(N(C)CC(C)C)n2)c1,< 1000
8,Cc1ccc(C(N)=O)cc1Nc1nc(NC2Cc3ccccc3C2)nc(N[C@@H]2CCNC2)n1,< 1000
9,Cc1ccc(C(N)=O)cc1Nc1nc(N[C@H]2CCN(C3CCC3)C2)nc(N(C)CC(C)C)n1,< 1000
10,Cc1ccc(C(=O)NO)cc1Nc1nc(N[C@H]2CCNC2)nc(N(C)CC(C)(C)C)n1,< 1000
11,CC(=O)N1CCN(c2nc(Nc3ccc4ncsc4c3)nc(N(C)CC3CCC4CC3C4(C)C)n2)CC1 (stereo not given),< 10000
12,Cc1ccc(C(N)=O)cc1Nc1nc(N[C@H]2CCN(Cc3cccc(F)c3)C2)nc(N(C)CC(C)C)n1,< 1000
13,CC(=O)N1CCN(c2nc(NC[C@@H]3CC[C@H]4C[C@@H]3C4(C)C)nc(Nc3ccc4ncsc4c3)n2)CC1,< 10000
14,CONC(=O)c1ccc(C)c(Nc2nc(NCCn3cccn3)nc(N(C)CC(C)(C)C)n2)c1,< 1000
15,CCCc1nc(NCc2ccc(S(N)(=O)=O)cc2)nc(Nc2cccc(-c3ccccc3)c2)n1,< 10000
16,CCNC(=O)c1ccc(C)c(Nc2nc(NC[C@H]3CCCN3)nc(N(C)CC(C)(C)C)n2)c1,< 1000
17,Cc1ccc(C(N)=O)cc1Oc1nc(NCc2ccccn2)nc(N(C)CC(C)(C)C)n1,< 30000
18,Cc1ccc(C(N)=O)cc1Nc1nc(N[C@H]2CCNC2)nc(N(C)CC(C)C)n1,< 1000
19,Cc1ccc(C(N)=O)cc1Nc1nc(N[C@H]2CCNC2)nc(N(C)CC(C)C(F)(F)F)n1 (stereo not given in full),< 1000
20,Cc1ccc(C(N)=O)cc1Nc1nc(N[C@H]2CCNC2)cc(N(C)CC(C)C)n1,< 1000
21,Cc1ccc(C(N)=O)cc1Nc1nc(CC2CCCC2)nc(Nc2ccncc2)n1,< 1000
22,Cc1ccc(C(N)=O)cc1Nc1nc(NCC(N)=O)nc(NCC(C)c2ccccc2)n1 (stereo not given),< 1000
23,Cc1ccc(C(=O)NCC(F)(F)F)cc1Nc1nc(N[C@H]2CCNC2)nc(N(C)CC(C)(C)C)n1,< 1000
24,Cc1ccc(COC(=O)C(F)(F)F)cc1Nc1nc(N[C@H]2CCNC2)nc(N(C)CC(C)C)n1,< 1000
25,CCc1ccc(C(N)=O)cc1Nc1nc(NCC(C)(C)C)nc(N[C@H]2CCNC2)n1,< 1000
